This note sets out measurements from patent publication US20150322051A1, “Macrocyclic picolinamides as fungicides” (Dow AgroSciences LLC, priority 2014, published 2015).

Each structure is given as a SMILES string. Where two headings read alike, the source gives them in different places. Bounds are passed on as bounds.

Data set [1] has as its system Mycosphaerella graminicola; anamorph: Septoria tritici (SEPTTR). In words: Leaf blotch of wheat (SEPTTR) whole-plant fungicidal test. The format is in vivo. The settings on record: Zymoseptoria tritici, topical; for pest or weed control at 121.5 g/ha: low volume (track spray) application, 121.5 g/H; for pest or weed control at 100 ppm: high volume application.
For data set [2], the system named is Puccinia triticina; synonym: Puccinia recondita f. sp. tritici (PUCCRT). In words: Wheat brown rust (PUCCRT) whole-plant fungicidal test. It is filed as in vivo. Particulars: topical; for pest or weed control at 121.5 g/ha: low volume (track spray) application, 121.5 g/H; for pest or weed control at 100 ppm: high volume application.
The mark [3] stands for this setting: 24 h, 1 Day Protectant, read-out: Low Volume activity at 121.5 g/H SEPTTR 1DP (% disease control rating).
[4] abbreviates: 72 h, 3 Day Curative, read-out: Low Volume activity at 121.5 g/H SEPTTR 3DC (% disease control rating).
The mark [5] stands for this setting: 24 h, 1 Day Protectant, read-out: Low Volume activity at 121.5 g/H PUCCRT 1DP (% disease control rating).
[6] abbreviates: 72 h, 3 Day Curative, read-out: Low Volume activity at 121.5 g/H PUCCRT 3DC (% disease control rating).
Where [7] appears, read: 24 h, 1 Day Protectant, read-out: High Volume activity at 100 ppm SEPTTR 1DP (% disease control rating).
Where [8] appears, read: 72 h, 3 Day Curative, read-out: High Volume activity at 100 ppm SEPTTR 3DC (% disease control rating).
Where [9] appears, read: 24 h, 1 Day Protectant, read-out: High Volume activity at 100 ppm PUCCRT 1DP (% disease control rating).
Where [10] appears, read: 72 h, 3 Day Curative, read-out: High Volume activity at 100 ppm PUCCRT 3DC (% disease control rating).

Usually melting point stands for the temperature of the solid-liquid transition. For the compound `CC(C)C[C@@H]1[C@@H](Cc2ccccc2)CCC[C@H](N)C(=O)O[C@H]1C.Cl`, the melting point was 221 to 224 °C.
On the same count and under the same terms, then `C[C@@H]1OC(=O)[C@@H](N)CCC[C@H](CCCc2ccccc2)[C@H]1Cc1ccc(OC(F)(F)F)cc1.Cl`, with 227 to 232 °C; and `C[C@@H]1OC(=O)[C@@H](N)CCC[C@H](Cc2ccc(C(F)(F)F)cc2)[C@H]1Cc1ccc(OC(F)(F)F)cc1.Cl`, with 215 to 217 °C; and `C[C@@H]1OC(=O)[C@@H](N)CCC[C@H](Cc2ccccc2)[C@H]1Cc1ccc(OC(F)(F)F)cc1.Cl`, with 196 to 198 °C.
Turning to `COc1ccnc(C(=O)N[C@H]2CCC[C@H](Cc3ccccc3)[C@@H](CC(C)C)[C@H](C)OC2=O)c1OCOC(C)=O` [Compound 14], the melting point lay within 60 to 64 °C. In addition, the pest or weed control at 121.5 g/ha in data set [1] (setting [3]) is > 70%. In addition, in data set [1] (setting [4]), the pest or weed control at 121.5 g/ha was > 70%. In addition, the pest or weed control at 121.5 g/ha in data set [2] (setting [5]) is > 70%. For the same compound, the pest or weed control at 121.5 g/ha in data set [2] (setting [6]) is < 70%.
Take `COc1ccnc(C(=O)N[C@H]2CCC[C@H](Cc3ccc(Cl)cc3)[C@@H](Cc3ccccc3)[C@H](C)OC2=O)c1OCOC(C)=O` [Compound 19]: the melting point was 98 to 100 °C. For the same compound, the pest or weed control at 121.5 g/ha in data set [1] (setting [3]) is > 70%. Moreover, in data set [1] (setting [4]), the pest or weed control at 121.5 g/ha is > 70%. Besides, in data set [2] (setting [5]), the pest or weed control at 121.5 g/ha was > 70%. Moreover, in data set [2] (setting [6]), the pest or weed control at 121.5 g/ha is < 70%.
In turn, `COc1ccnc(C(=O)N[C@H]2CCC[C@H](Cc3ccccc3)[C@@H](CC(C)C)[C@H](C)OC2=O)c1O` [Compound 77] displayed a melting point of 73 to 76 °C.
`COc1ccnc(C(=O)N[C@H]2CCC[C@H](CCCc3ccccc3)[C@@H](Cc3ccc(OC(F)(F)F)cc3)[C@H](C)OC2=O)c1O` [Compound 93] returned a melting point of 49 to 53 °C. The pest or weed control at 100 ppm in data set [1] (setting [7]) is < 70%. Moreover, the pest or weed control at 100 ppm in data set [1] (setting [8]) is < 70%. For the same compound, the pest or weed control at 100 ppm in data set [2] (setting [9]) was < 70%. Further, the pest or weed control at 100 ppm in data set [2] (setting [10]) is < 70%.
Regarding `COc1ccnc(C(=O)N[C@H]2CCC[C@H](Cc3ccc(C(F)(F)F)cc3)[C@@H](Cc3ccc(OC(F)(F)F)cc3)[C@H](C)OC2=O)c1O` [Compound 96], the pest or weed control at 100 ppm in data set [1] (setting [7]), in data set [1] (setting [8]), in data set [2] (setting [9]) and in data set [2] (setting [10]) was < 70% each time.
With `COc1ccnc(C(=O)N[C@H]2CCC[C@H](Cc3ccccc3)[C@@H](Cc3ccc(OC(F)(F)F)cc3)[C@H](C)OC2=O)c1O` [Compound 97], the pest or weed control at 100 ppm in data set [1] (setting [7]) is > 70%; in data set [1] (setting [8]) it was < 70%; in data set [2] (setting [9]) it was > 70%; in data set [2] (setting [10]), < 70%.
Turning to `COc1ccnc(C(=O)N[C@H]2CCC[C@H](CCCc3ccccc3)[C@@H](Cc3ccccc3)[C@H](C)OC2=O)c1O` [Compound 98], the pest or weed control at 100 ppm in data set [1] (setting [7]) was > 70%; in data set [1] (setting [8]) it was > 70%; in data set [2] (setting [9]), > 70%; in data set [2] (setting [10]), < 70%.
As to `C[C@@H]1OC(=O)[C@@H](NC(=O)OC(C)(C)C)CCC[C@H](Cc2ccc(C(F)(F)F)cc2)[C@H]1Cc1ccc(OC(F)(F)F)cc1` [Compound 152], the melting point lay in the range of 65 to 67 °C.
